Experimental data from US10045985B2, “Heteroaryl compounds as BTK inhibitors and uses thereof” (Merck Patent GmbH, priority 2015, dated 2018).

Assays:
[1] = biological target: T1, BTK C481S enzyme (His-TEV-hsBTK(328-659)(C481S)) (Homo sapiens, UniProt Q06187, C481S); test: Assay B: microfluidic off-chip mobility shift assay for potency against BTK C481S enzyme; format: biochemical; conditions: 90 min at 25° C.
T1 construct: His-TEV-hsBTK(328-659)(C481S); His (N); TEV cleavage site (N)
Description: Assay B: Microfluidic Off-Chip Mobility Shift Assay Protocol for Potency Assessment Against BTK C481S Enzyme
The protocol below describes a microfluidic, off-chip mobility shift kinase assay to measure inherent potency of compounds against BTK C481S enzyme. The mechanics of the assay platform are described by the vendor (PerkinElmer, Hopkinton, Mass.) on their website at the following URL: http://caliperls.com.
Briefly, 2.5× stocks of His-TEV-hsBTK(328-659)(C481S) from the Merck Serono Protein Purification Laboratory in Darmstadt, Germany (PCS, Q27/234), 1.6×ATP and appropriate KinKDR peptide substrate (FITC-AHA-EEPLYWSFPAKKK-NH2; Tufts University Core Facility custom synthesis) were prepared in kinase reaction buffer consisting of 25 mM MgCl2, 0.015% Brij-35 (30%), 100 mM HEPES, pH 7.5, and 10 mM DTT.
5 uL of enzyme buffer and 7.5 uL of ATP/KinKDR peptide substrate mix were added to Matrix (#4315) 384-well, sterile, flat-bottom polypropylene plates (Thermo Fisher Scientific, Hudson, N.H.) with 125 nL of serially diluted compounds prepared in 100% DMSO, and incubated for 90 min. at 25° C. Following the incubation period, reactions were terminated by adding 65 uL quench buffer consisting of 100 mM HEPES, pH 7.5, 0.015% Brij-35 (30%), 0.277% Coating Reagent #3 (PerkinElmer, Mountain View, Calif.), 5% DMSO. Terminated reactions were monitored at −2 PSI, −3000 V/−700 Volts in a LabChip 3000 plate reader from Caliper Life Sciences, a PerkinElmer Company (Hopkinton, Mass.), and the activity was quantified by laser-induced fluorescence measuring the charge/mass difference between substrate and product resulting from peptide phosphorylation. IC50 and efficacy were determined by plotting log [Inhibitor] vs. % Activity in GeneData Screener (Basel, Switzerland).

full-length human BTK = biological target: T2, full-length human BTK (Homo sapiens, UniProt Q06187); test: Assay A: microfluidic off-chip mobility shift assay for potency against BTK enzyme; format: biochemical; conditions: 90 min at 27° C.
T2 construct: full-length human BTK (08-080) from CarnaBio USA, Inc; purchased CarnaBio USA, Inc., Natick, Mass; 08-080
T2 sequence (Q06187 whole entry): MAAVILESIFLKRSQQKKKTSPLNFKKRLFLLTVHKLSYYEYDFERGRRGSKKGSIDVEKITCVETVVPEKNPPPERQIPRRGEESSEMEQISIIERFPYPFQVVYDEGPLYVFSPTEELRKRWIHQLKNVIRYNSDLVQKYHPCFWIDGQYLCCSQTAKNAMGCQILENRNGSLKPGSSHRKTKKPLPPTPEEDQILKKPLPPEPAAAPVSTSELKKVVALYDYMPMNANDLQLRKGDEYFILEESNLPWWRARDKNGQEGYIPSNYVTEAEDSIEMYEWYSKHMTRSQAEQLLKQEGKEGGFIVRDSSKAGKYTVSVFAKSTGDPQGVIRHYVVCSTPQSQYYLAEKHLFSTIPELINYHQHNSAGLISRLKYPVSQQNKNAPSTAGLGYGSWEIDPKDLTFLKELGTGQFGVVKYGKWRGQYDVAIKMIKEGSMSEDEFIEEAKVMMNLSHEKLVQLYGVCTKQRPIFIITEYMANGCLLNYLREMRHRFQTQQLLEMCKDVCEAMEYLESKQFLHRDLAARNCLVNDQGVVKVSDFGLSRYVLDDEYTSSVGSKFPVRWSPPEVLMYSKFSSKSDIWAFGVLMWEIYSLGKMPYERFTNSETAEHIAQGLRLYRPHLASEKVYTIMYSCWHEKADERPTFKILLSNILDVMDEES
Description: Assay A: Microfluidic Off-Chip Mobility Shift Assay Protocol for Potency Assessment Against BTK Enzyme
The protocol below describes microfluidic, off-chip mobility shift kinase assay to measure inherent potency of compounds against BTK enzyme. The mechanics of the assay platform are best described by the vendor (Caliper Life Sciences, a PerkinElmer Company, Hopkinton, Mass.) on their website at the following URL:
Briefly, 2.5× stocks of full-length human BTK (08-080) from CarnaBio USA, Inc., Natick, Mass., 1.6×ATP and appropriate kinKDR peptide substrate (FITC-AHA-EEPLYWSFPAKKK-NH2; developed in-house) were prepared in kinase reaction buffer consisting of 25 mM MgCl2, 0.015% Brij-35 (30%), 100 mM Hepes, pH 7.5, and 10 mM DTT.
5 uL of enzyme buffer and 7.5 uL of ATP/kinKDR peptide substrate mix were added to Matrix (#115304) 384-well, sterile, polypropylene plates (Thermo Fisher Scientific, Hudson, N.H.) with 125 nL of serially diluted compounds prepared in 100% DMSO, and incubated for 90 min. at 27° C. following the incubation period, reactions were stopped by adding 60 uL stop buffer consisting of 100 mM Hepes, pH 7.5, 0.015% Brij-35 (30%), 0.277% Coating Reagent #3 (Caliper Life Sciences, Mountain View, Calif.), 5% DMSO. Stopped reactions were monitored at −2 PSI, −3000 V/−700 V in a LabChip 3000 plate reader from Caliper Life Sciences, a PerkinElmer Company (Hopkinton, Mass.), and the activity was measured by off-chip mobility shift assay measuring the charge/mass difference between substrate and product resulting from peptide phosphorilation. IC50 and efficacy were determined by plotting log [Inhibitor] vs. % Activity in GeneData Screener (Basel, Switzerland).

T1 sequence (Q06187 328-659 C481S): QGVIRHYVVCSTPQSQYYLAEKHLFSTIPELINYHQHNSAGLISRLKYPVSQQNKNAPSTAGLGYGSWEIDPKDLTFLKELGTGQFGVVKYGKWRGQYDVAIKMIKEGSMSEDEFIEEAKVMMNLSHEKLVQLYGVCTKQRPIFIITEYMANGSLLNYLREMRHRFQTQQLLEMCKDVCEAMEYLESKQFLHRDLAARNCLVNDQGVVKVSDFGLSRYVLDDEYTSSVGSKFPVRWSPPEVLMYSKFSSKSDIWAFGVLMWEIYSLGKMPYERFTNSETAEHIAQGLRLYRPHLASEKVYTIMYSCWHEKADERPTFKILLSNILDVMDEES

| IC50 [1] | IC50 (full-length human BTK) | SMILES |
| --- | --- | --- |
| 100 to 1000 nM | 100 to 1000 nM | COCCOc1ccc(Nc2ncc(F)c(NC3CCCC(NC(=O)c4ccc(C(C)(C)C)cc4)C3)n2)cc1 (racemic) [Compound 3, 4-(tert-butyl)-N-(3-((5-fluoro-2-((4-(2-methoxyethoxy)phenyl)amino)pyrimidin-4-yl)amino)cyclohexyl)benzamide] |
| 1000 to 5000 nM | 1000 to 5000 nM | COCCOc1ccc(Nc2ncc(F)c(NC3CCCC(NC(=O)CNc4cccc(Cl)c4)C3)n2)cc1 (racemic) [Compound 5] |
|  | > 5000 nM | COCCOc1ccc(Nc2ncc(F)c(N3CCCC(CNC(=O)c4ccc(C(C)(C)C)cc4)C3)n2)cc1 (racemic) [Compound 7, 4-(tert-butyl)-N-((1-(5-fluoro-2-((4-(2-methoxyethoxy)phenyl)amino)pyrimidin-4-yl)piperidin-3-yl)methyl)benzamide] |
|  | > 5000 nM | COCCOc1ccc(Nc2ncc(F)c(NCC3CCN(C(=O)c4ccc(C(C)(C)C)cc4)C3)n2)cc1 (racemic) [Compound 8, (4-(tert-butyl)phenyl)(3-(((5-fluoro-2-((4-(2-methoxyethoxy)phenyl)amino)pyrimidin-4-yl)amino)methyl)pyrrolidin-1-yl)methanone] |
|  | > 5000 nM | COCCOc1ccc(Nc2ncc(F)c(N3CCC(CNC(=O)c4ccc(C(C)(C)C)cc4)C3)n2)cc1 (racemic) [Compound 17, 4-(tert-butyl)-N-((1-(5-fluoro-2-((4-(2-methoxyethoxy)phenyl)amino)pyrimidin-4-yl)pyrrolidin-3-yl)methyl)benzamide] |
| < 100 nM | < 100 nM | COCCOc1ccc(Nc2ncc(F)c(N[C@@H]3CCC[C@@H](NC(=O)c4ccc(C(C)(C)C)cc4)C3)n2)cc1 (racemic) [Compound 19, 4-(tert-butyl)-N-(trans-3-((5-fluoro-2-((4-(2-methoxyethoxy)phenyl)amino)pyrimidin-4-yl)amino)cyclohexyl)benzamide] |
| < 100 nM | < 100 nM | COCCOc1ccc(Nc2ncc(F)c(NC3CCCC(NC(=O)c4cc5c(s4)CCCC5)C3O)n2)cc1 (racemic) [Compound 26] |
| 100 to 1000 nM | 100 to 1000 nM | COCCOc1ccc(Nc2ncc(F)c(NC3CCCC(NC(=O)c4cc(C(C)(C)C)on4)C3O)n2)cc1 (racemic) [Compound 27] |
|  | > 5000 nM | COCCOc1ccc(Nc2ncc(F)c(N3CCC[C@@H](NC(=O)c4ccc(C(C)(C)C)cc4)C3)n2)cc1 [Compound 1, (R)0-4-(tert-butyl)-N-(1-(5-fluoro-2-((4-(2-methoxyethoxy)phenyl)amino)pyrimidin-4-yl)piperidin-3-yl)benzamide] |
| > 5000 nM | > 5000 nM | COCCOc1ccc(Nc2ncc(F)c(N3CCC[C@@H](NC(=O)CNc4cccc(Cl)c4)C3)n2)cc1 [Compound 2, (R)-2-((3-chlorophenyl)amino)-N-(1-(5-fluoro-2-((4-(2-methoxyethoxy)phenyl)amino)pyrimidin-4-yl)piperidin-3-yl)acetamide] |
| 100 to 1000 nM | 1000 to 5000 nM | COCCOc1ccc(Nc2ncc(F)c(Nc3cccc(NC(=O)CNc4cccc(Cl)c4)c3)n2)cc1 [Compound 4, 2-((3-chlorophenyl)amino)-N-(3-((5-fluoro-2-((4-(2-methoxyethoxy)phenyl)amino)pyrimidin-4-yl)amino)phenyl)acetamide] |
| 1000 to 5000 nM | 1000 to 5000 nM | COCCOc1ccc(Nc2ncc(F)c(Nc3cccc(NC(=O)c4ccc(C(C)(C)C)cc4)c3)n2)cc1 [Compound 6] |
| 100 to 1000 nM | 100 to 1000 nM | COCCOc1ccc(Nc2ncc(F)c(NC3CCCC(NC(=O)c4ccc(N(C)C)cc4)C3)n2)cc1 (stereo not shown) [Compound 11, 4-Dimethylamino-N-(3-{5-fluoro-2-[4-(2-methoxy-ethoxy)-phenylamino]-pyrimidin-4-ylamino}-cyclohexyl)-benzamide] |
| 100 to 1000 nM | 100 to 1000 nM | COCCOc1ccc(Nc2ncc(F)c(NC3CCCC(NC(=O)c4ccc(C(C)(C)O)cc4)C3)n2)cc1 (stereo not shown) [Compound 12, N-(3-{5-Fluoro-2-[4-(2-methoxy-ethoxy)-phenylamino]-pyrimidin-4-ylamino}-cyclohexyl)0-4-(1-hydroxy-1-methyl-ethyl)-benzamide] |
|  | > 5000 nM | COCCOc1ccc(Nc2ncc(F)c(NC3CCCC(NC(=O)Cc4ccc(C(C)(C)C)cc4)C3)n2)cc1 (stereo not shown) [Compound 13, 2-(4-tert-Butyl-phenyl)-N-(3-{5-fluoro-2-[4-(2-methoxy-ethoxy)-phenylamino]-pyrimidin-4-ylamino}-cyclohexyl)-acetamide] |
|  | > 5000 nM | COCCOc1ccc(Nc2ncc(F)c(NC3CCCC(NC(=O)c4coc(-c5ccccc5)n4)C3)n2)cc1 (stereo not shown) [Compound 14, 2-Phenyl-oxazole-4-carboxylic acid (3-{5-fluoro-2-[4-(2-methoxy-ethoxy)-phenylamino]-pyrimidin-4-ylamino}-cyclohexyl)-amide] |
|  | > 5000 nM | COCCOc1ccc(Nc2ncc(F)c(N3CCCC4(CCN(C(=O)c5ccc(C(C)(C)C)cc5)C4)C3)n2)cc1 (stereo not shown) [Compound 15, (4-(tert-butyl)phenyl)(7-(5-fluoro-2-((4-(2-methoxyethoxy)phenyl)amino)pyrimidin-4-yl)-2,7-diazaspiro[4.5]decan-2-yl)methanone] |
|  | > 5000 nM | COCCOc1ccc(Nc2ncc(F)c(N3CC4CN(C(=O)c5ccc(C(C)(C)C)cc5)CC4C3)n2)cc1 (stereo not shown) [Compound 18, (4-(tert-butyl)phenyl)(5-(5-fluoro-2-((4-(2-methoxyethoxy)phenyl)amino)pyrimidin-4-yl)hexahydropyrrolo[3,4-c]pyrrol-2(1H)-yl)methanone] |
|  | > 5000 nM | COCCOc1ccc(Nc2ncc(F)c(N3CCC4CN(C(=O)c5ccc(C(C)(C)C)cc5)CC43)n2)cc1 (stereo not shown) [Compound 20, (4-(tert-butyl)phenyl)(1-(5-fluoro-2-((4-(2-methoxyethoxy)phenyl)amino)pyrimidin-4-yl)hexahydropyrrolo[3,4-b]pyrrol-5(1H)-yl)methanone] |
|  | > 5000 nM | COCCOc1ccc(Nc2ncc(F)c(N3CCCC4(CCCN(C(=O)c5ccc(C(C)(C)C)cc5)C4)C3)n2)cc1 (stereo not shown) [Compound 21, (4-(tert-butyl)phenyl)(8-(5-fluoro-2-((4-(2-methoxyethoxy)phenyl)amino)pyrimidin-4-yl)-2,8-diazaspiro[5.5]undecan-2-yl)methanone] |
|  | < 100 nM | COCCOc1ccc(Nc2ncc(F)c(N[C@@H]3CCC[C@@H](NC(=O)c4ccc(C(C)(C)C)cc4)C3)n2)cc1 [Compound 22, 4-(tert-butyl)-N-((1R,3R)-3-((5-fluoro-2-((4-(2-methoxyethoxy)phenyl)amino)pyrimidin-4-yl)amino)cyclohexyl) benzamide] |
|  | 1000 to 5000 nM | COCCOc1ccc(Nc2ncc(F)c(N[C@H]3CCC[C@H](NC(=O)c4ccc(C(C)(C)C)cc4)C3)n2)cc1 [Compound 23, 4-(tert-butyl)-N-((1S,3S)-3-((5-fluoro-2-((4-(2-methoxyethoxy)phenyl)amino)pyrimidin-4-yl)amino)cyclohexyl)benzamide] |
|  | 1000 to 5000 nM | COCCOc1ccc(Nc2ncc(F)c(N[C@H]3CCC[C@H](NC(=O)c4ccc(C(C)(C)C)cc4)[C@H]3O)n2)cc1 [Compound 25] |

| SMILES | IC50 [1] | IC50 (full-length human BTK) |
| --- | --- | --- |
| COCCOc1ccc(Nc2ncc(F)c(N3CC[C@H](NC(=O)c4ccc(C(C)(C)C)cc4)C3)n2)cc1 [Compound 9, (S)-4-(tert-butyl)-N-(1-(5-fluoro-2-((4-(2-methoxyethoxy)phenyl)amino)pyrimidin-4-yl)pyrrolidin-3-yl)benzamide] |  | > 5000 nM |
